We go through 91 compounds from PubChem BioAssay AID1508612.

The Papp is the rate of passage across a membrane or cell layer, normalised by area and donor concentration. Lower therefore signals slow passage.

The series is described as follows: passive permeability, PAMPA, ADME assay (AID 1508612). Conditions: pH 7.4, 30.0 min, 50.0 µM. Background: The PAMPA barrier holds no transporters, so it reflects passive diffusion.
Compound `Cc1ccc(-c2cc(C(=O)Nc3ccccn3)c3ccccc3n2)cc1` registered a Papp of more than 1000 ×10⁻⁶ cm/s.
The same measure for `CC(=O)c1c(C)[nH]c(C(=O)Nc2ccc(OCCCN(C)C)c(S(=O)(=O)Nc3ccc(Br)cc3)c2)c1C`: 74.7 ×10⁻⁶ cm/s.
The same measure for `CC(=O)c1c(C)[nH]c(C(=O)Nc2cccc(S(=O)(=O)Nc3ccc(Br)cc3)c2)c1C`: 288 ×10⁻⁶ cm/s; for `CCn1nnnc1Sc1ncnc2scc(-c3ccc(C)cc3)c12`: more than 1000 ×10⁻⁶ cm/s.
The same measure for `Cc1c(Cl)cccc1-n1ncc(C(=O)Nc2ccc(Br)cc2F)c1C1CCNCC1`: more than 1000 ×10⁻⁶ cm/s.
`CCc1ccc(NC(=O)c2[nH]c(C)c(C(C)=O)c2C)cc1[S+](=O)([O-])N1CCCCCC1` came in with a Papp of 227 ×10⁻⁶ cm/s.
Regarding `COC(=O)C1=C(C)NC(C)=C(C(=O)O[C@@H]2CCCN(Cc3ccccc3)C2)[C@@H]1c1cccc([N+](=O)[O-])c1`, the Papp is 950 ×10⁻⁶ cm/s.
As to `Cc1ncc2c(c1CNC(=O)Cn1cnc3ccccc3c1=O)CCNC2`, the Papp was 59.6 ×10⁻⁶ cm/s.
The same measure for `COc1cc(/C=C(\C#N)C(=O)c2ccc(O)c(O)c2)cc(I)c1O`: less than 1 ×10⁻⁶ cm/s; for `COc1ccc2[nH]c(=O)c(-c3noc(-c4ccccc4)n3)cc2c1`: 760 ×10⁻⁶ cm/s; for `Cc1noc(C)c1Cc1ccc(C(=O)N2CCc3c(nc4cc(-c5ccccc5)[nH]n4c3=O)C2)o1`: 7.01 ×10⁻⁶ cm/s.
Regarding `Cc1ccc(-c2ccc(CNc3nc(-c4ccccc4C(C)C)ncc3C)cc2)cn1`, the Papp stood at 824 ×10⁻⁶ cm/s.
For `C[S+](=O)([O-])c1ccc(-c2nc(C(=O)N3CCOCC3)n3ccccc23)cc1`, the Papp was found to be 180 ×10⁻⁶ cm/s.
The same measure for `COc1ccc(NC(=O)c2ccccc2)cc1S(=O)(=O)Nc1ccc(Br)cc1`: 731 ×10⁻⁶ cm/s.
The same measure for `O=C(Nc1nc(-c2ccccc2)cs1)c1ccncc1NS(=O)(=O)c1cccc2cccnc12`: 445 ×10⁻⁶ cm/s.
The same measure for `O=c1c(-c2ccc(O)cc2)coc2cc(O)ccc12`: less than 1 ×10⁻⁶ cm/s; for `COc1cccc(-c2nc(-c3c(C)noc3C)cc3[nH]c(C)cc23)c1OC`: more than 1000 ×10⁻⁶ cm/s; for `Cc1ccc2oc(NC3=NC(c4[nH]ncc4Cl)C4=C(CCCC4=O)N3)nc2c1` (stereo unspecified): 1000 ×10⁻⁶ cm/s.
On to `O=C(CCCN1CCC(n2c(=O)[nH]c3ccccc32)CC1)c1ccc(F)cc1`, for which the Papp worked out at 952 ×10⁻⁶ cm/s.
`COCCNC(=O)[C@H]1C[C@H](Oc2ccccc2)CN1Cc1ccc2[nH]ccc2c1` gave an apparent permeability (Papp) of 961 ×10⁻⁶ cm/s.
The same measure for `CCc1cccc(NC(=O)CSc2nc3ccccc3nc2N2CCCCC2)c1`: 322 ×10⁻⁶ cm/s; for `CC(C)(C)c1ccc(-c2csc(N3CCC(C(N)=O)CC3)n2)cc1`: 370 ×10⁻⁶ cm/s; for `Cc1sc2c(c1C)C(c1ccc(Cl)cc1)=N[C@H](CC(=O)NCCCCNC(=O)COc1cccc3c1C(=O)N([C@H]1CCC(=O)NC1=O)C3=O)c1nnc(C)n1-2`: less than 1 ×10⁻⁶ cm/s.
Turning to `O=C(Nc1ccc(S(=O)(=O)Nc2nccs2)cc1)c1ccncc1`, the apparent permeability coefficient (Papp) was 1.4 ×10⁻⁶ cm/s.
The same measure for `Cc1noc(C)c1C(=O)N1CCC2(CC1)CCN(C(c1ccccc1)c1ccccc1)CC2`: more than 1000 ×10⁻⁶ cm/s; for `CC(Nc1nc(N2CCN(S(C)(=O)=O)CC2)nc2ccccc12)c1ccccc1` (stereo unspecified): more than 1000 ×10⁻⁶ cm/s; for `CCCC1=Nc2cc(C(=O)NC3CCCCC3)ccc2Sc2ccc(C)cc21`: 17.1 ×10⁻⁶ cm/s.
The same measure for `O=C(Nc1ccc(OC(F)(F)Cl)cc1)c1cnc(N2CC[C@@H](O)C2)c(-c2ccn[nH]2)c1`: 14.6 ×10⁻⁶ cm/s; for `CCCc1cc(C)[nH]c(=O)c1CNC(=O)c1cc(-c2ccnc(N3CCN(C)CC3)c2)cc2c1cnn2C(C)C`: 782 ×10⁻⁶ cm/s.
For the compound `CNc1nccc(-c2cccc3ccccc23)n1`, the Papp is 905 ×10⁻⁶ cm/s.
On to `CC(=O)c1c(C)[nH]c(C(=O)Nc2ccc(C)c(S(=O)(=O)N3CCCCCC3)c2)c1C`, for which the apparent permeability (Papp) was 792 ×10⁻⁶ cm/s.
The same measure for `c1ccc2[nH]c(Nc3nc(-c4ccncc4)nc4ccccc34)nc2c1`: more than 1000 ×10⁻⁶ cm/s.
The same measure for `Oc1ccc(C(=S)N2CCN(c3cccc(Cl)c3)CC2)cc1`: 677 ×10⁻⁶ cm/s.
The same measure for `Cc1cc(-c2nnc3n2CCCCC3)c(C)n1-c1ccccc1`: 581 ×10⁻⁶ cm/s.
Consider `Cc1ccc(S(=O)(=O)Nc2cnccc2C(=O)Nc2nc(-c3ccc(C)c(C)c3)cs2)cc1`, for which the Papp was more than 1000 ×10⁻⁶ cm/s.
The same measure for `O=C(NCCN1CCOCC1)C1CC(=O)N(c2n[nH]c3cc(Br)ccc23)C1` (stereo unspecified): 1.8 ×10⁻⁶ cm/s; for `CC1=C(C(=O)Nc2nncs2)C(c2nn(C)cc2Cl)N=C(Nc2nc3ccccc3o2)N1` (stereo unspecified): more than 1000 ×10⁻⁶ cm/s; for `CC1CC(C)(C)N(C(=O)CN2C(=O)c3ccccc3C2=O)c2ccccc21` (stereo unspecified): more than 1000 ×10⁻⁶ cm/s.
The same measure for `CC(C)(C)NS(=O)(=O)c1ccc(-c2ccc3[nH]nc(N)c3c2)cc1`: 564 ×10⁻⁶ cm/s.
Compound `O=C(Nc1ccc2c(N3CCOCC3)ncnc2c1)c1cccc(Br)c1` registered a Papp of more than 1000 ×10⁻⁶ cm/s.
The same measure for `COCCNCc1ccc(-c2cc3nccc(Oc4ccc(NC(=S)NC(=O)Cc5ccc(F)cc5)cc4F)c3s2)nc1`: 361 ×10⁻⁶ cm/s; for `CC(=O)OCCN1C(=O)c2c(C)nc3ccc(S(=O)(=O)N4CCOCC4)cc3c2C1=O`: 665 ×10⁻⁶ cm/s; for `CCOC(=O)C1CCN(c2ncc(-c3ccc4c(c3)OCCCO4)s2)CC1`: more than 1000 ×10⁻⁶ cm/s.
The same measure for `O=C1Nc2ccccc2/C1=C\c1ccc(O)c(F)c1`: 343 ×10⁻⁶ cm/s; for `O=S(=O)(Nc1cccc(C(F)(F)F)c1)c1ccc(NS(=O)(=O)c2ccc3c(c2)OCCO3)cc1`: 668 ×10⁻⁶ cm/s; for `CN(C)c1cccc(-c2ccnc(N3CCC(C(N)=O)CC3)n2)c1`: 333 ×10⁻⁶ cm/s.
The same measure for `Nc1scc2c(C(=O)O)nn(-c3ccccc3)c(=O)c12`: less than 1 ×10⁻⁶ cm/s; for `Cc1ccc(S(=O)(=O)Nc2ccccc2C(=O)Nc2ccc(-c3ccccc3)nc2)cc1`: 54.3 ×10⁻⁶ cm/s.
Regarding `COc1cncc(Nc2ncc(-c3cccc(N(C)C)c3)c3c2OCC3)c1`, the Papp is less than 1 ×10⁻⁶ cm/s.
In turn, `Cc1ccccc1C(=O)N1CCc2cc(N3CCC(NC(=O)Cc4ccccc4)C3)ccc21` (stereo unspecified) registered a Papp of 783 ×10⁻⁶ cm/s.
The same measure for `CC[C@H]1CN2CCC3CC(OC)C(OC)CC3[C@@H]2C[C@@H]1C[C@H]1NCCC2=C1CC(OC)=C(O)C2` (stereo partly specified): 153 ×10⁻⁶ cm/s.
The same measure for `Cc1c(NC2=C(Cl)C(=O)N(c3ccccc3)C2=O)c(=O)n(-c2ccccc2)n1C`: 123 ×10⁻⁶ cm/s.
The same measure for `O=C(Nc1ccccc1C(=O)Nc1ccccc1C(=O)NCc1ccco1)c1ccco1`: more than 1000 ×10⁻⁶ cm/s; for `COc1ccc2[nH]c(S(=O)Cc3ncc(C)c(OC)c3C)nc2n1` (stereo unspecified): 183 ×10⁻⁶ cm/s; for `CC(C)c1ccccc1-c1ncc(F)c(NC(C)(C)c2ccc(-n3ccnn3)cc2)n1`: 672 ×10⁻⁶ cm/s.
`C[C@H]1CN(C(=O)Nc2ccc(F)cc2)C[C@@H]1c1nc(-c2ccccc2)no1` showed an apparent permeability (Papp) of more than 1000 ×10⁻⁶ cm/s.
The same measure for `Cc1noc(C)c1CN1CCNc2cc(Nc3ccccc3)ncc2C1`: 978 ×10⁻⁶ cm/s.
The compound `Cc1cc(-c2ccc(C)c(S(=O)(=O)NCC3CCN(Cc4ccc(F)cc4)CC3)c2)on1` came in with an apparent permeability (Papp) of more than 1000 ×10⁻⁶ cm/s.
`NC(=O)C1CCN(c2cc(-c3ccc4c(c3)OCCCO4)ncn2)CC1` showed an apparent permeability (Papp) of 37 ×10⁻⁶ cm/s.
The same measure for `Cc1ccc2c(c1)N(S(=O)(=O)c1cc(-c3onc(C)c3C)ccc1C)CCO2`: 664 ×10⁻⁶ cm/s; for `CC(=O)c1ccc(N2CCN(c3ccc(NC(=O)c4ccc(F)cc4)cc3C(=O)O)CC2)cc1`: 156 ×10⁻⁶ cm/s; for `O=C(C1CCN(c2nc(-c3ccc(Br)cc3)cs2)CC1)N1CCNCC1`: 484 ×10⁻⁶ cm/s.
The same measure for `O=C(Nc1nc(-c2ccccc2)cs1)c1ccncc1NS(=O)(=O)c1ccccc1F`: 468 ×10⁻⁶ cm/s.
The same measure for `Cn1ncnc1[C@H]1c2n[nH]c(=O)c3cc(F)cc(c23)N[C@@H]1c1ccc(F)cc1`: 60.5 ×10⁻⁶ cm/s.
As for `O=S(=O)(Nc1nccs1)c1ccc(NCc2cccc(Br)c2O)cc1`, the Papp was 72.7 ×10⁻⁶ cm/s.
The same measure for `NC(=O)C1CCN(c2nc(-c3ccc4ccccc4c3)cs2)CC1`: 406 ×10⁻⁶ cm/s; for `COCCNc1ncc(-c2cccc(O)c2)c2c1OCC2`: 412 ×10⁻⁶ cm/s.
For `CC(C)(C)c1ccc(S(=O)(=O)N2CCC(c3ccncc3)CC2)cc1`, the Papp turned out to be 320 ×10⁻⁶ cm/s.
With `CN1CCc2cc3c(cc2C1)OCO3`, the apparent permeability coefficient (Papp) is 316 ×10⁻⁶ cm/s.
The same measure for `N=c1c2c(ncn1-c1ccccc1)Oc1ccc3ccccc3c1C2c1ccc2c(c1)CCO2` (stereo unspecified): 282 ×10⁻⁶ cm/s; for `Cc1cnc(-c2ccccc2C2COC2)nc1NCC1CCN(c2cccnc2)CC1`: 3.48 ×10⁻⁶ cm/s.
The same measure for `COc1cc2nc(N3CCCC3)nc(NCCCCCN3CCCC3)c2cc1OC`: 2.4 ×10⁻⁶ cm/s; for `NC(=O)C1CCN(c2ncc(-c3ccc(Cl)cc3)s2)CC1`: 714 ×10⁻⁶ cm/s.
The same measure for `Cn1c(=O)c2c(-c3ccc(Cl)cc3)n(CCc3ccccc3)cc2n(C)c1=O`: more than 1000 ×10⁻⁶ cm/s; for `O=[N+]([O-])c1cccc(CSc2nc3ncc(Br)cc3[nH]2)c1`: 550 ×10⁻⁶ cm/s.
Take `Cn1c(=O)c2c(nc(Cl)n2Cc2ccc(Cl)cc2)n(C)c1=O`: the Papp is more than 1000 ×10⁻⁶ cm/s.
The same measure for `O=C(c1cnc(N2CCCCC2)c2ccccc12)N1CCN(c2ccccn2)CC1`: more than 1000 ×10⁻⁶ cm/s; for `O=C(CCCc1ccc2cccnc2n1)NCc1cc(-c2ccc(F)c(C(F)(F)F)c2)no1`: more than 1000 ×10⁻⁶ cm/s; for `CCOc1ccc(CCNC(=O)c2ccnn2Cc2cccc(C)c2)cc1OCC`: more than 1000 ×10⁻⁶ cm/s.
The same measure for `CCCN1CNc2c(c(=O)[nH]c(=S)n2Cc2ccc(OC)c(OC)c2)C1`: 55 ×10⁻⁶ cm/s; for `Fc1ccc(Cc2nc3nccc(-c4cccs4)n3n2)cc1`: more than 1000 ×10⁻⁶ cm/s; for `O=C1Nc2ccccc2/C1=C/c1cccc(C(=O)O)c1`: 1.2 ×10⁻⁶ cm/s.
The same measure for `COC(=O)CNC(=O)c1nc(-c2ccccc2OC)c2ccccn12`: more than 1000 ×10⁻⁶ cm/s; for `Cc1ccc(S(=O)(=O)Nc2cnccc2C(=O)Nc2ccc(S(=O)(=O)Nc3nccs3)cc2)cc1`: less than 1 ×10⁻⁶ cm/s.
In turn, `Cc1nn2c(c1-c1ccccc1-c1ccccc1)N(Cc1ccc(O)cc1)CCC2` had a Papp of 1.8 ×10⁻⁶ cm/s.
The same measure for `Cc1ccc(S(=O)(=O)c2cnc(SC(C)C(=O)Nc3ccccc3)[nH]c2=O)cc1` (stereo unspecified): 1.2 ×10⁻⁶ cm/s.
The same measure for `Cc1cc(C)c(C(=O)Nc2cccc([S+](=O)([O-])N3CCCC3)c2)[nH]1`: 948 ×10⁻⁶ cm/s; for `COc1ccc(-c2nc(-c3c(C)noc3C)cc3c2cc(C)n3CCN(C)C)cc1OC`: more than 1000 ×10⁻⁶ cm/s; for `CCCc1cc(C)[nH]c(=O)c1CNC(=O)c1cc(-c2ccc(N3CCN(C(C)C)CC3)nc2)cc2c1cnn2C(C)C`: more than 1000 ×10⁻⁶ cm/s.
The same measure for `CC1=C(C(=O)Nc2nnc(-c3ccccc3)s2)C(c2nn(C)cc2Cl)N=C(Nc2nc3ccccc3o2)N1` (stereo unspecified): 23.1 ×10⁻⁶ cm/s; for `CSc1nc(N)cc(Oc2ccc(-c3nc(Nc4cccc(C(F)(F)F)c4)n[nH]3)cc2)n1`: 633 ×10⁻⁶ cm/s.
